Measured values from PMC8184855, “A small molecule inhibitor of Nox2 and Nox4 improves contractile function after ischemia–reperfusion in the mouse heart” (Scientific Reports, 2021).

Target: T1, Nox4 (Homo sapiens, UniProt Q9NPH5)
T1 sequence (Q9NPH5 1-578): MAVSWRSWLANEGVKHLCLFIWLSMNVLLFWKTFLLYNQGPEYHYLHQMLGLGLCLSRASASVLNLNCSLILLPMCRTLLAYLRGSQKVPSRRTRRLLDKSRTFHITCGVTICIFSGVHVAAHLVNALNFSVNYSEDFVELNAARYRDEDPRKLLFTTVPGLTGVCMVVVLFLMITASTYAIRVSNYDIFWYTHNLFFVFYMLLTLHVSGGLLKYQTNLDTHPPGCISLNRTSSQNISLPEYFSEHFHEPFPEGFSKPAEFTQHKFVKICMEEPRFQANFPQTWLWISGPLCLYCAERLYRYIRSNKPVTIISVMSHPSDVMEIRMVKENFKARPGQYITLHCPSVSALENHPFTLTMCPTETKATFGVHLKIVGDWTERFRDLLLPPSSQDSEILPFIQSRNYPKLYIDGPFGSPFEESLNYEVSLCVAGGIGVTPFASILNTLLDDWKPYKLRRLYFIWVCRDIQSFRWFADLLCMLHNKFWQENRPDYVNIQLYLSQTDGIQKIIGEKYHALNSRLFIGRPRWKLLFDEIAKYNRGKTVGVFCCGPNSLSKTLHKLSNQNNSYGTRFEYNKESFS
Experiment: Amplex Red H2O2 assay in CJ HEK […] cells overexpressing Nox4 (found by screen in T-Rex-293 with inducible Nox4); H2O2 counter-screen and DPPH redox control
Assay type: cell-based

- IC50: 1250 nM
Structure (SMILES): COc1cccc(N2CCN(Cc3nc(N)nc(Nc4ccc(C)c(C)c4)n3)CC2)c1 [GLX481304]
